Data published in ChEMBL document CHEMBL1201862, “PubChem BioAssay data set” (2004).
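Assay format: 96-well plates, 48-hour exposure. GI50 = concentration required for 50% inhibition of growth.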 Activity calls are given as the source filed them. No stated cut-off is given here; in the data, active = GI50 up to about 1.1 µM and inactive = higher.

What was measured:
Assay in all cases: NCI anticancer screen, dose series, 48 h
KM12 = tested on: KM12
TK-10 = tested on: TK-10
OVCAR-8 = tested on: OVCAR-8
OVCAR-5 = tested on: OVCAR-5
MOLT-4 = tested on: MOLT-4
RXF 393 = tested on: RXF 393
DMS-273 = tested on: DMS-273
UACC-257 = tested on: UACC-257
EKVX = tested on: EKVX
HOP-62 = tested on: HOP-62
SR = tested on: SR
NCI-H460 = tested on: NCI-H460
A498 = tested on: A498
NCI-H522 = tested on: NCI-H522
IGROV-1 = tested on: IGROV-1
SF-268 = tested on: SF-268
UACC-62 = tested on: UACC-62
A549 = tested on: A549
SNB-78 = tested on: SNB-78
HL-60 = tested on: HL-60
CCRF-CEM = tested on: CCRF-CEM
SK-OV-3 = tested on: SK-OV-3
HOP-92 = tested on: HOP-92
M19-MEL = tested on: M19-MEL
HT-29 = tested on: HT-29
SNB-19 = tested on: SNB-19
NCI-H23 = tested on: NCI-H23
M14 = tested on: M14
NCI-H226 = tested on: NCI-H226
U-251 = tested on: U-251
UO-31 = tested on: UO-31
SK-MEL-28 = tested on: SK-MEL-28
SF-295 = tested on: SF-295
HCT-116 = tested on: HCT-116
T47D = tested on: T47D
SNB-75 = tested on: SNB-75
SK-MEL-5 = tested on: SK-MEL-5
OVCAR-3 = tested on: OVCAR-3
LOX IMVI = tested on: LOX IMVI
SW-620 = tested on: SW-620
MDA-MB-435 = tested on: MDA-MB-435
MDA-N = tested on: MDA-N
Hs-578T = tested on: Hs-578T
SK-MEL-2 = tested on: SK-MEL-2
PC-3 = tested on: PC-3
RPMI-8226 = tested on: RPMI-8226
DU-145 = tested on: DU-145
HCC 2998 = tested on: HCC 2998
Malme-3M = tested on: Malme-3M
786-0 = tested on: 786-0
COLO 205 = tested on: COLO 205
CAKI-1 = tested on: CAKI-1
SF-539 = tested on: SF-539
MCF7 = tested on: MCF7
BT-549 = tested on: BT-549
HCT-15 = tested on: HCT-15
OVCAR-4 = tested on: OVCAR-4
NCI/ADR-RES = tested on: NCI/ADR-RES
MDA-MB-231 = tested on: MDA-MB-231
SN12C = tested on: SN12C
ACHN = tested on: ACHN
K562 = tested on: K562

## CCSc1c2ccccc2nc2c(OC)ccc(OC)c12
KM12
  GI50: 24.7 µM (inactive)
TK-10
  GI50: 33.8 µM (inactive)
OVCAR-8
  GI50: 22.1 µM (inactive)
OVCAR-5
  GI50: 42.3 µM (inactive)
MOLT-4
  GI50: 22 µM (inactive)
RXF 393
  GI50: 18.6 µM (inactive)
DMS-273
  GI50: 21.9 µM (inactive)
UACC-257
  GI50: 22.4 µM (inactive)
EKVX
  GI50: > 100 µM (inactive)
HOP-62
  GI50: 36.5 µM (inactive)
SR
  GI50: 23.9 µM (inactive)
NCI-H460
  GI50: 20.7 µM (inactive)
A498
  GI50: 31 µM (inactive)
NCI-H522
  GI50: 41.2 µM (inactive)
IGROV-1
  GI50: 26.7 µM (inactive)
SF-268
  GI50: 22.8 µM (inactive)
UACC-62
  GI50: 20.6 µM (inactive)
A549
  GI50: 70.6 µM (inactive)
SNB-78
  GI50: 14.5 µM (inactive)
HL-60
  GI50: 23.3 µM (inactive)
CCRF-CEM
  GI50: 36.3 µM (inactive)
SK-OV-3
  GI50: 24.7 µM (inactive)
HOP-92
  GI50: 22.3 µM (inactive)
M19-MEL
  GI50: 18.5 µM (inactive)
HT-29
  GI50: 25.7 µM (inactive)
SNB-19
  GI50: 29.1 µM (inactive)
NCI-H23
  GI50: > 10 µM (inactive)
M14
  GI50: 35.7 µM (inactive)
NCI-H226
  GI50: 25.1 µM (inactive)
U-251
  GI50: 19.3 µM (inactive)
UO-31
  GI50: 25.9 µM (inactive)
SK-MEL-28
  GI50: 19.8 µM (inactive)
SF-295
  GI50: 25.2 µM (inactive)
HCT-116
  GI50: 20.1 µM (inactive)

## CCOC1SC(SC)=NN1C(=O)C(OC(C)=O)C(OC(C)=O)C(OC(C)=O)C(OC(C)=O)C(=O)N1N=C(SC)SC1OCC (configuration not stated)
KM12
  GI50: > 100 µM (inactive)
TK-10
  GI50: > 100 µM (inactive)
OVCAR-8
  GI50: > 100 µM (inactive)
OVCAR-5
  GI50: > 100 µM (inactive)
MOLT-4
  GI50: > 100 µM (inactive)
RXF 393
  GI50: 75.2 µM (inactive)
T47D
  GI50: > 100 µM (inactive)
SNB-75
  GI50: 48.3 µM (inactive)
SK-MEL-5
  GI50: > 100 µM (inactive)
UACC-257
  GI50: > 100 µM (inactive)
OVCAR-3
  GI50: > 100 µM (inactive)
EKVX
  GI50: > 100 µM (inactive)
LOX IMVI
  GI50: > 100 µM (inactive)
SW-620
  GI50: > 100 µM (inactive)
HOP-62
  GI50: > 100 µM (inactive)
SR
  GI50: > 100 µM (inactive)
MDA-MB-435
  GI50: > 100 µM (inactive)
NCI-H460
  GI50: > 100 µM (inactive)
A498
  GI50: > 100 µM (inactive)
MDA-N
  GI50: > 100 µM (inactive)
NCI-H522
  GI50: > 100 µM (inactive)
IGROV-1
  GI50: > 100 µM (inactive)
SF-268
  GI50: > 100 µM (inactive)
Hs-578T
  GI50: 35.2 µM (inactive)
SK-MEL-2
  GI50: > 100 µM (inactive)
PC-3
  GI50: > 100 µM (inactive)
UACC-62
  GI50: > 100 µM (inactive)
RPMI-8226
  GI50: > 100 µM (inactive)
A549
  GI50: > 100 µM (inactive)
HL-60
  GI50: > 100 µM (inactive)
CCRF-CEM
  GI50: > 100 µM (inactive)
DU-145
  GI50: > 100 µM (inactive)
SK-OV-3
  GI50: > 100 µM (inactive)
HOP-92
  GI50: 38.2 µM (inactive)
HCC 2998
  GI50: > 100 µM (inactive)
Malme-3M
  GI50: > 100 µM (inactive)
786-0
  GI50: 62.1 µM (inactive)
HT-29
  GI50: > 100 µM (inactive)
COLO 205
  GI50: > 100 µM (inactive)
SNB-19
  GI50: > 100 µM (inactive)
NCI-H23
  GI50: > 100 µM (inactive)
CAKI-1
  GI50: > 100 µM (inactive)
SF-539
  GI50: 69.7 µM (inactive)
MCF7
  GI50: > 100 µM (inactive)
M14
  GI50: > 100 µM (inactive)
BT-549
  GI50: > 100 µM (inactive)
HCT-15
  GI50: > 100 µM
NCI-H226
  GI50: > 100 µM (inactive)
OVCAR-4
  GI50: 78.5 µM (inactive)
U-251
  GI50: 86.3 µM (inactive)
UO-31
  GI50: > 100 µM (inactive)
NCI/ADR-RES
  GI50: > 100 µM (inactive)
MDA-MB-231
  GI50: > 100 µM (inactive)
SN12C
  GI50: > 100 µM (inactive)
SK-MEL-28
  GI50: > 100 µM (inactive)
SF-295
  GI50: > 100 µM (inactive)
HCT-116
  GI50: 88.5 µM (inactive)
ACHN
  GI50: > 100 µM (inactive)
K562
  GI50: > 100 µM (inactive)

## O=c1cc(N=P(c2ccccc2)(c2ccccc2)c2ccccc2)n(-c2ccccc2)c(=O)n1-c1ccccc1
KM12
  GI50: 14.9 µM (inactive)
TK-10
  GI50: 15.2 µM (inactive)
OVCAR-8
  GI50: 12.3 µM (inactive)
OVCAR-5
  GI50: 23.2 µM (inactive)
MOLT-4
  GI50: 3.48 µM (inactive)
RXF 393
  GI50: 1.53 µM (inactive)
T47D
  GI50: 8.85 µM (inactive)
SNB-75
  GI50: 10.1 µM (inactive)
SK-MEL-5
  GI50: 10.3 µM (inactive)
UACC-257
  GI50: 23.8 µM (inactive)
OVCAR-3
  GI50: 8.17 µM (inactive)
EKVX
  GI50: 10.4 µM (inactive)
LOX IMVI
  GI50: 8.77 µM (inactive)
SW-620
  GI50: 7.45 µM (inactive)
HOP-62
  GI50: 6.52 µM (inactive)
SR
  GI50: 4.28 µM (inactive)
MDA-MB-435
  GI50: 5.2 µM (inactive)
NCI-H460
  GI50: 4.15 µM (inactive)
A498
  GI50: 3.18 µM (inactive)
MDA-N
  GI50: 7.64 µM (inactive)
NCI-H522
  GI50: 14.4 µM (inactive)
IGROV-1
  GI50: 17.9 µM (inactive)
SF-268
  GI50: 29 µM (inactive)
Hs-578T
  GI50: 18.2 µM (inactive)
SK-MEL-2
  GI50: 13.8 µM (inactive)
PC-3
  GI50: 3.94 µM (inactive)
UACC-62
  GI50: 11.4 µM (inactive)
RPMI-8226
  GI50: 4.92 µM (inactive)
A549
  GI50: 6.25 µM (inactive)
HL-60
  GI50: 5.06 µM (inactive)
CCRF-CEM
  GI50: 8.63 µM (inactive)
DU-145
  GI50: 9.51 µM (inactive)
SK-OV-3
  GI50: 22.2 µM (inactive)
HOP-92
  GI50: 9.02 µM (inactive)
HCC 2998
  GI50: 8.26 µM (inactive)
Malme-3M
  GI50: 11.8 µM (inactive)
786-0
  GI50: 6.3 µM (inactive)
HT-29
  GI50: 15.9 µM (inactive)
COLO 205
  GI50: 6.56 µM (inactive)
SNB-19
  GI50: 17.7 µM (inactive)
NCI-H23
  GI50: 5.85 µM (inactive)
CAKI-1
  GI50: 12.7 µM (inactive)
SF-539
  GI50: 3.76 µM (inactive)
MCF7
  GI50: 6.03 µM (inactive)
M14
  GI50: 8.79 µM (inactive)
BT-549
  GI50: 14.5 µM (inactive)
HCT-15
  GI50: 3.38 µM
NCI-H226
  GI50: 3.92 µM (inactive)
OVCAR-4
  GI50: 4.95 µM (inactive)
U-251
  GI50: 8.02 µM (inactive)
UO-31
  GI50: 4.92 µM (inactive)
NCI/ADR-RES
  GI50: 21.8 µM (inactive)
MDA-MB-231
  GI50: 8.18 µM (inactive)
SN12C
  GI50: 11.1 µM (inactive)
SK-MEL-28
  GI50: 23.9 µM (inactive)
SF-295
  GI50: 20.7 µM (inactive)
HCT-116
  GI50: 13.3 µM (inactive)
ACHN
  GI50: 4.33 µM (inactive)
K562
  GI50: 3.31 µM (inactive)
